This series is described as follows: gradient 5% acetonitrile 3 min, to 50% in 2 min, to 85% in 15 min, held 3 min, 100 µL/min. To be noted: column: Zorbax Extend-C18 2.1 x 50 mm; eluents: water / acetonitrile, 0.1% formic acid. The essentials:
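Each retention time is based on an adduct peak selected computationally and verified by manual inspection. Measurements used HPLC–quadrupole time-of-flight mass spectrometry in positive and negative ionization mode on mixtures of ~100 pure standards. Chromatography ran on a Zorbax Extend-C18 column (2.1 × 50 mm, 1.8 μm) at 100 μL/min with water and acetonitrile, each containing 0.1% formic acid, and dead and dwell volumes of 40 μL and 900 μL.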
In turn, `Cc1noc(C2(NC(=O)c3ccccn3)CCCCC2)n1` yielded an RP-LC retention time of 766 s.
Turning to `COc1ccc(N2CCn3c(SCC(=O)Nc4ccccc4C(F)(F)F)nnc32)cc1`, the RP-LC retention time came out at 726 s.
The same measure for `CN1CCN(CCNC(=O)CN2C(=O)C3CCCCN3c3ccc(C(=O)N(C)C)cc32)CC1` (stereo unspecified): 578 s.
As for `Cn1c(C(=O)NCCC2=CCCCC2)cc2c(=O)oc3ccccc3c21`, the RP-LC retention time was 1050 s.
`O=c1ccc(N2CCCC(NS(=O)(=O)Cc3ccccc3)C2)n[nH]1` (stereo unspecified): the RP-LC retention time was 654 s.
`CN1CCC(NC(=O)C2CCc3sc(C(=O)N4CCCCCC4)cc3C2)CC1` (stereo unspecified) came in with an RP-LC retention time of 612 s.
As for `CCOc1ccc(-c2csc(Cc3nc(-c4cccc(Cl)c4)no3)n2)cc1`, the RP-LC retention time was 1340 s.
With `CCOc1ccc(N2CC(c3nc(-c4ccccc4F)no3)CC2=O)cc1` (stereo unspecified), the RP-LC retention time was determined as 967 s.
In turn, `COc1ccc2c(c1)C1(CCN(C(=O)c3ccc(OC)c(OC)c3)C1)C(=O)N2C` (stereo unspecified) showed an RP-LC retention time of 886 s.
With `CCCNC(=O)C1CCCN(c2nc3ccsc3c(=O)n2-c2ccc(C)cc2)C1` (stereo unspecified), the RP-LC retention time was 1250 s.
The same measure for `Cc1cnc(CC2CCN(C(=O)C(C)C)C2)n1C(C)C` (stereo unspecified): 578 s; for `COc1cc(C)c(C)cc1S(=O)(=O)N1CCN(c2ccc(-c3cccnc3)nn2)CC1`: 649 s.
Consider `CCn1nccc1-c1csc(S(=O)(=O)N2CCCC2)c1`, for which the RP-LC retention time amounted to 864 s.
`Cc1ccc(OCC(=O)Nc2ccc3c(c2)Sc2ncccc2C(=O)N3C)cc1` had an RP-LC retention time of 866 s.
In turn, `CC(C)NC(=O)c1ccc(CN2CCN(Cc3ccc(F)cc3)C(=O)C2=O)cc1` yielded an RP-LC retention time of 668 s.
Under `COc1cc(C2CC(=O)c3c([nH]c(C(=O)OC4CCCCC4)c3C)C2)cc(OC)c1OC` (stereo unspecified) stands 1090 s; under `Cn1nc(C(=O)N2CCCC2)c2c1CCN(C(=O)CCC(=O)NC1CCCCCC1)C2`, 696 s.
As for `CN1CCC(Nc2ncc3ncnc(Nc4ccc(F)c(Cl)c4)c3n2)CC1`, the RP-LC retention time amounted to 710 s.
In turn, `CCOc1ccccc1N1CCN(S(=O)(=O)c2nn(CC)cc2C(=O)NCCOC)CC1` registered an RP-LC retention time of 910 s.
The compound `O=c1oc2cc(O)c(O)cc2c2c1CCC2` returned an RP-LC retention time of 641 s.
Under `O=C(CCC1CCCC1)NC1(c2nc(-c3cccnc3)no2)CCCCC1` stands 1020 s; under `CC(C)c1cc(C(=O)Nc2ccc(F)cc2F)nc2ccnn12`, 1160 s; under `CCOC(=O)N1CCN(Cc2nc(-c3ccc(N4CCCC(C)C4)nc3)no2)CC1` (stereo unspecified), 855 s.
Turning to `Cc1cc(C)n(-c2ccnc(N3CCC(C(=O)NCCc4ccccn4)CC3)n2)n1`, the RP-LC retention time turned out to be 575 s.
In turn, `Cc1noc([C@@H]2CC(F)(F)CN2C(=O)c2cc(C)[nH]n2)n1` yielded an RP-LC retention time of 604 s.
`Cc1nc2c(C(=O)NCCN3CCOCC3)cnn2c(C)c1Cc1ccccc1Cl` showed an RP-LC retention time of 678 s.
`Cc1ccc(C)c(CN2CCn3c(nn(CC4CC4)c3=O)C2)c1` registered an RP-LC retention time of 879 s.
`Cc1cccc(C(=O)N2CCc3cc(CNS(=O)(=O)c4ccc5c(c4)CC(=O)N5C)ccc32)c1`: the RP-LC retention time stood at 836 s.
The same measure for `Cc1ccc(Cc2nc(CCNC(=O)C3CCN(S(=O)(=O)c4ccc(C)cc4)CC3)n[nH]2)cc1`: 769 s; for `Cc1cccc(-c2noc(-c3ccc(=O)n(Cc4cccnc4)c3)n2)c1`: 747 s.
On to `COCCn1cc(C(=O)Nc2ccc(F)cc2F)c2nn(-c3ccccc3)c(=O)c-2c1`, for which the RP-LC retention time came out at 1010 s.
Under `O=C(O)c1cccc(-c2noc(-c3ccccc3F)n2)c1` stands 964 s.
The same measure for `CCn1cnc(S(=O)(=O)N2CCCC(C(=O)N3CCN(c4ncccn4)CC3)C2)c1` (stereo unspecified): 657 s.
In the case of `CCN1CCN(CCNC(=O)C2CCN(c3nccnc3Sc3ccc(C)cc3)CC2)CC1`, the RP-LC retention time is 639 s.
Under `CS(=O)(=O)N1CCC(C(=O)NC2CCCCCC2)Oc2ccc(Cl)cc21` (stereo unspecified) stands 991 s; under `O=C(c1cccc(Cl)c1)N1CCC(n2c(-c3ccoc3)nc3cccnc32)C1` (stereo unspecified), 776 s; under `O=C(NC1CCCCCC1)C1CCCN(c2ncc(-c3cccc(F)c3)cn2)C1` (stereo unspecified), 1160 s.
In the case of `O=C(Nc1ccc2c(c1)OCCO2)[C@@H]1COCC(=O)N1Cc1ccc(F)cc1`, the RP-LC retention time came to 765 s.
The compound `Cc1cc(C)c2sc(NC(=O)C3=COCCO3)nc2c1` showed an RP-LC retention time of 895 s.
As to `COc1ccc2c(C)c(CCC(=O)N[C@@H](C(=O)O)C(C)C)c(=O)oc2c1C`, the RP-LC retention time was 746 s.
For `CCOc1ccc(-c2cc3n(n2)CCCN(C(C)=O)C3)cc1`, the RP-LC retention time is 637 s.
The compound `CN1CCc2c([nH]c3ccccc23)C12CCN(S(=O)(=O)c1cccnc1)CC2` showed an RP-LC retention time of 585 s.
Consider `CCCNC(=O)CSc1nc2nc(C)cc(C)n2n1`, for which the RP-LC retention time turned out to be 611 s.
Turning to `COc1ccc(NC(=O)C2CCN(S(=O)(=O)c3ccc4c(c3)sc(=O)n4C)CC2)cc1Cl`, the RP-LC retention time is 880 s.
The same measure for `O=C(Nc1c(-c2cccc(F)c2)nc2sc(N3CCCCC3)nn12)C1CC1`: 897 s; for `COc1cccc(CNC(=O)N2CCN(Cc3c(C)noc3C)CC2)c1`: 593 s; for `NS(=O)(=O)c1ccc(CCNC(=O)Cn2nc3c(N4CCOCC4)nccn3c2=O)cc1`: 613 s.
As for `O=C(Cc1ccc(Cl)cc1)N1CCCN(C2CCN(CC3CC3)C2=O)CC1` (stereo unspecified), the RP-LC retention time came to 581 s.
As to `CN(C)CCNc1nc(-c2ccc(C(C)(C)C)cc2)nc2ccccc12`, the RP-LC retention time stood at 590 s.
Consider `O=c1[nH]c2ccccc2c2ccccc12`, for which the RP-LC retention time is 806 s.
On to `Cc1cnc(C(=O)N2CCC(n3c(C)cnc3C3CCC3)C2)cn1` (stereo unspecified), for which the RP-LC retention time was 560 s.
Regarding `CNc1nc(Nc2ccc(OC)cc2)nc2ccccc12`, the RP-LC retention time was 641 s.
The same measure for `COCCn1ncc(N2CCC(C(=O)N3CCc4ccccc43)C2)cc1=O` (stereo unspecified): 713 s.
In turn, `CC(C)n1cc(S(=O)(=O)Nc2ccc(F)cc2)c2cccnc21` returned an RP-LC retention time of 869 s.
`CCOc1ccc(CNS(=O)(=O)c2cc(-c3cnn4c(C)cc(C)nc34)ccc2C)cc1OCC` returned an RP-LC retention time of 1040 s.
`CN(C)[C@@H]1CN(C(=O)c2ccc(F)c(F)c2)C[C@H]1CO` came in with an RP-LC retention time of 531 s.
Take `O=C(NCC1CCCCC1)C1CCN(c2nnc3ccccn23)CC1`: the RP-LC retention time was 628 s.
Compound `COC(=O)C(C)NC(=O)NCc1cccn1Cc1ccccc1F` (stereo unspecified) had an RP-LC retention time of 804 s.
As to `CSc1ccc(CCNC(=O)C2CCCN(C(=O)Cc3cccc4ccccc34)C2)cc1` (stereo unspecified), the RP-LC retention time was determined as 971 s.
Compound `CCOc1ccccc1C(=O)Nc1cccn2c(C3CCC3)nnc12` returned an RP-LC retention time of 953 s.
Turning to `O=C(NCCCn1cccn1)C1CN(S(=O)(=O)c2ccccc2)CC12CCCCC2` (stereo unspecified), the RP-LC retention time worked out at 819 s.
Consider `O=C(Cc1cccs1)NC1CCN(c2cc(-c3ccccc3)[nH]n2)C1` (stereo unspecified), for which the RP-LC retention time was determined as 673 s.
Regarding `CCc1nn2c(CNC(=O)c3ccoc3)c(-c3ccccc3)nc2s1`, the RP-LC retention time turned out to be 808 s.
In turn, `O=C(Nc1ccccc1)c1cnn2c1CCCC2` had an RP-LC retention time of 699 s.
For the compound `CCc1ccc(CNC(=O)C2CCN(c3cnc(N4CCOCC4)nc3)CC2)cc1`, the RP-LC retention time came to 786 s.
For `COc1cccc(C2c3c(oc4cc(C)c(C)cc4c3=O)C(=O)N2CCCN2CCOCC2)c1` (stereo unspecified), the RP-LC retention time worked out at 695 s.
As for `COC1CN(C2CCN(C(=O)c3cccs3)CC2)C12CCOCC2` (stereo unspecified), the RP-LC retention time is 572 s.
The same measure for `COc1ccc(CCNC(=O)CN2C(=O)NC(c3ccc(Cl)cc3)C3=C2COC3=O)cc1OC` (stereo unspecified): 750 s.
Compound `Cc1noc(-c2ccnc(-n3ncc(C(=O)NCCc4c[nH]c5ccccc45)c3C)c2)n1` showed an RP-LC retention time of 903 s.
Compound `CCC(C)NC(=O)c1cn(-c2cc(-c3nc(C4CC4)no3)ccn2)cn1` (stereo unspecified) came in with an RP-LC retention time of 840 s.
Take `CCN(CC)c1ccc(C(=O)N2CCc3nc[nH]c3C2)cc1`: the RP-LC retention time was 550 s.
Consider `CCCNC(=O)N1CCCN(C2=NS(=O)(=O)C(c3ccccc3)=C2C)CC1`, for which the RP-LC retention time amounted to 735 s.
The same measure for `CCN1C(=O)COc2ccc(-c3nc(NC(=O)c4ccncc4)sc3C)cc21`: 768 s; for `COc1cc(NS(=O)(=O)c2cc(-c3cnn4c(C)cc(C)nc34)ccc2OC)cc(OC)c1`: 949 s; for `CCCC(NC(=O)c1ccc(Cl)cc1)C(=O)Nc1nc2ccccc2[nH]1` (stereo unspecified): 742 s.
`O=C(CNC(=O)c1ccc(=O)[nH]c1)NCC1CCCCC1` gave an RP-LC retention time of 599 s.
On to `CC(OC(=O)Nc1cccc(Cl)c1)C(=O)O` (stereo unspecified), for which the RP-LC retention time amounted to 809 s.
The same measure for `CCN(CC)C(=O)c1ccc(O)c(OC)c1`: 718 s; for `O=C(NCCc1ccc(N2CCCC2)cc1)c1ccccc1`: 704 s.
For the compound `O=C(Cn1nc(N2CCOCC2)c2ccccc2c1=O)Nc1ccc(Br)cc1`, the RP-LC retention time came to 864 s.
As for `CCOC(=O)c1[nH]c(C)c(C(=O)N2CCC(CC(=O)NC3CCCCC3)CC2)c1C`, the RP-LC retention time was 719 s.
